Results as given in US11274332B2, “Methods of administering 3,4-diaminopyridine” (SERB SA, priority 2011, dated 2022).

Assay: Food-effect crossover study, adverse events after single 20 mg amifampridine phosphate in healthy subjects (Examples 10, 11)
Assay type: in vivo
Method: This was a randomized, open-label, 2-treatment, 2-period crossover study with 44 completed subjects to assess the safety, tolerability, and the effect of food on the relative bioavailability of a single dose of amifampridine phosphate.
Safety was evaluated for all subjects who take at least one dose of 3,4-DAP. Safety was evaluated by recording the incidence of adverse events (AEs), physical examination, vital signs, concomitant medications, clinical laboratory assessments, and 12-lead electrocardiogram (ECG).
Analysis for the following safety parameters was carried out on the Safety Population: AEs which included all AEs, AEs by severity, drug-related AEs, deaths, SAEs, AEs leading to study discontinuation, and most frequent AEs, standard clinical laboratory tests, vital signs, ECG measurements, routine physical examinations, and prior and concomitant medications. The cut-off for frequency of AEs reported was determined based on the data. No formal statistical testing was performed for the safety analyses; only descriptive statistics were provided. Appropriate descriptive statistics for the safety data were determined using SAS Version 9.2.
AEs were coded according to the Medical Dictionary for Regulatory Activities (MedDRA; Version 13.0). […] The occurrence of AEs was assessed continuously from the time the subject signed the VID and consent. The reporting period for non-serious AEs was from the first dose to the final study visit. The investigator determined the severity of each event and the relationship of an AE to the IP and recorded it on the source documents and AE CRF. The nature, time of onset, duration, severity, and relationship to study drug was documented, including documentation of investigator assessment and review. All events were assessed to determine if the AE was serious.
The Investigator determined the severity of each event and the event was recorded on the source documents and AE CRF. A coding of “mild” meant there was no limitation of usual activities, “moderate” meant there was some limitation of usual activities, “severe” meant there was an inability to carry out usual activities.
The reporting period for AEs that met the criteria of an SAE began from the time of signing the VID and consent form through follow-up or early termination. […] Clinical Laboratory Assessments

SMILES: Nc1ccncc1N [3,4-DAP, 3,4-diaminopyridine]
- paraesthesias among the 93 drug-related AEs: % of events (Overall): 54%
- paraesthesias among the 93 drug-related AEs: events (Overall): 50
- Abdominal Pain, drug-related AE: events (Overall N=47): 3
- Dizziness, drug-related AE: events (Overall N=47): 7
- Dysgeusia, drug-related AE: events (Overall N=47): 3
- Fatigue, drug-related AE: events (Overall N=47): 4
- Gastrointestinal Disorders Total, drug-related AE: % of subjects (Overall N=47): 19%
- Gastrointestinal Disorders Total, drug-related AE: events (Overall N=47): 12
- Gastrointestinal Disorders Total, drug-related AE: subjects (Overall N=47): 9
- Headache, drug-related AE: events (Overall N=47): 5
- Hypoaesthesia Oral, drug-related AE: events (Overall N=47): 6
- Nausea, drug-related AE: events (Overall N=47): 4
- Nervous System Disorders Total, drug-related AE: % of subjects (Overall N=47): 57%
- Nervous System Disorders Total, drug-related AE: events (Overall N=47): 74
- Nervous System Disorders Total, drug-related AE: subjects (Overall N=47): 27
- Paraesthesia Oral, drug-related AE: events (Overall N=47): 30
- Paraesthesia, drug-related AE: events (Overall N=47): 20
